The target of data set [1] is T1, human PD-L1 (Homo sapiens, UniProt Q9NZQ7).
T1 construct: purchased Cisbio Bioassays SAS, Codolet, France 64PD1PEG
The data set can be described thus: HTRF PD-1/PD-L1 binding assay (cell-free). As to conditions: for fold reduction of affinity, pyrrole at R1 vs 1,4-benzodioxanyl analogue / fold decrease in affinity by methylation at R3*: IC50 ratio; for fold reduction of affinity, pyrrole at R1 vs 1,4-benzodioxanyl analogue: pairs 4c vs 4m, 4e vs 4n, 4f vs 4o, 5c vs 5f; for fold decrease in affinity by methylation at R3*: pairs 4c vs 5a, 4c vs 5b, 4e vs 5c, 4e vs 5d.

The nature of data set [2]: Lipophilicity by HPLC method (μHPLC logD). As to conditions: for μHPLC logD: pH 7.4; for chromatographic logD: pH 7.4, μHPLC logD.
Where [3] appears, read: cell-free competitive PD-1/PD-L1 HTRF, mean ± SD, read-out: IC50 (hPD-L1 binding affinity, HTRF).
The mark [4] stands for this setting: no full dose–response curves observed, values are relative IC50, read-out: relative IC50 (hPD-L1 binding affinity, HTRF).

Structures are written as SMILES. Where two headings read alike, the source gives them in different places.

A word on the IC50: it is the concentration that gives 50% inhibition. By chromatographic logD is commonly meant a lipophilicity value derived from retention on a column.

T1 sequence (Q9NZQ7 19-238 limits assumed): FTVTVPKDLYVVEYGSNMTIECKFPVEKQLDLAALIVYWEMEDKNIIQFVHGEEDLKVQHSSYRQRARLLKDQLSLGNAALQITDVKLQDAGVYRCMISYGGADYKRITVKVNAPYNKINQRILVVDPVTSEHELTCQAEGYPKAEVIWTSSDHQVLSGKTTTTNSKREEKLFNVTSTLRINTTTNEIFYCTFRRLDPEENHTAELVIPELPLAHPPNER

Take `Cc1c(COc2cc(O)c(C=O)cc2Cl)cccc1-c1ccccc1` [Compound 2b, 5-Chloro-2-hydroxy-4-((2-methyl-[1,1′-biphenyl]-3-yl)methoxy)benzaldehyde]: the IC50 in data set [1] (setting [3]) was over 100000 nM.
As to `Cc1c(COc2cc(O)c(C=O)cc2Cl)cccc1-c1ccc2c(c1)OCCO2` [Compound 2c, 5-Chloro-4-((3-(2,3-dihydrobenzo[b][1,4]dioxin-6-yl)-2-methylbenzyl)oxy)-2-hydroxybenzaldehyde], the IC50 in data set [1] (setting [3]) was over 100000 nM.
`Cc1c(COc2cc(OCc3cccc(C#N)c3)c(C=O)cc2Cl)cccc1-c1ccccc1` [Compound 3a, 3-((4-Chloro-2-formyl-5-((2-methyl-[1,1′-biphenyl]-3-yl)methoxy)phenoxy)methyl)benzonitrile]: the IC50 in data set [1] (setting [4]) is 1300 nM.
The same measure, in the same setting: to `Cc1c(COc2cc(OCc3ccnc(C#N)c3)c(C=O)cc2Cl)cccc1-c1ccc2c(c1)OCCO2` [Compound 3b, 4-((4-Chloro-5-((3-(2,3-dihydrobenzo[b][1,4]dioxin-6-yl)-2-methylbenzyl)oxy)-2-formylphenoxy)methyl)picolinonitrile] belongs 207 ± 340 nM.
As to `Cc1c(COc2cc(OCc3cccc(C#N)c3)c(C=O)cc2Cl)cccc1-c1ccc2c(c1)OCCO2` [Compound 3c, 3-((4-Chloro-5-((3-(2,3-dihydrobenzo[b][1,4]dioxin-6-yl)-2-methylbenzyl)oxy)-2-formylphenoxy)methyl)benzonitrile], the IC50 in data set [1] (setting [3]) was over 5000 nM.
Turning to `Cc1c(COc2cc(OCc3cocn3)c(C=O)cc2Cl)cccc1-c1ccc2c(c1)OCCO2` [Compound 3d, 5-Chloro-4-((3-(2,3-dihydrobenzo[b][1,4]dioxin-6-yl)-2-methylbenzyl)oxy)-2-(oxazol-4-ylmethoxy)benzaldehyde], the IC50 in data set [1] (setting [3]) is over 5000 nM.
The same measure, in the same setting: to `Cc1c(COc2cc(OCc3ccnc(C#N)c3)c(C=O)cc2Cl)cccc1-n1cccc1` [Compound 3e, 4-((4-Chloro-2-formyl-5-((2-methyl-3-(1H-pyrrol-1-yl)benzyl)oxy)phenoxy)methyl)picolinonitrile] belongs over 5000 nM.
Take `CC(=O)NCCNCc1cnc(OCc2cccc(-c3ccccc3)c2C)c(Cl)c1` [Compound 4a, N-(2-(((5-Chloro-6-((2-methyl-[1,1′-biphenyl]-3-yl)methoxy)pyridin-3-yl)methyl)amino)ethyl)acetamide]: in data set [2], the “μHPLC logD” value is reported as 2.3 ± 0.1 and the chromatographic logD amounted to 2.33 ± 0.14. Moreover, the IC50 in data set [1] (setting [3]) is over 50000 nM.
For the compound `Cc1c(COc2cc(OCc3cccc(C#N)c3)c(CN[C@H](CO)C(=O)O)cc2Cl)cccc1-c1ccccc1` [Compound 4b, (5-Chloro-2-((3-cyanobenzyl)oxy)-4-((2-methyl-[1,1′-biphenyl]-3-yl)methoxy)benzyl)-D-serine], in data set [2], the chromatographic logD worked out at 3.46 ± 0.05. For the same compound, the IC50 in data set [1] (setting [3]) is 6.7 ± 0.4 nM.
In the same order, the values of `Cc1c(COc2cc(OCc3ccnc(C#N)c3)c(CN[C@H](CO)C(=O)O)cc2Cl)cccc1-c1ccc2c(c1)OCCO2` [Compound 4c, (5-Chloro-2-((2-cyanopyridin-4-yl)methoxy)-4-((3-(2,3-dihydrobenzo[b][1,4]dioxin-6-yl)-2-methylbenzyl)oxy)benzyl)-D-serine] are 3.25 ± 0.03 and 6.1 ± 0.3 nM.
With `CC(=O)NCCNCc1cc(Cl)c(OCc2cccc(-c3ccc4c(c3)OCCO4)c2C)cc1OCc1ccnc(C#N)c1` [Compound 4d, N-(2-((5-Chloro-2-((2-cyanopyridin-4-yl)methoxy)-4-((3-(2,3-dihydrobenzo [b][1,4]dioxin-6-yl)-2-methylbenzyl)oxy)benzyl)amino)ethyl)acetamide], in data set [2], the “μHPLC logD” value is 4.5 ± 0.2 and the chromatographic logD is 4.45 ± 0.2. Also, in data set [1] (setting [3]), the IC50 is 9.2 ± 0.6 nM.
In the same order, the values of `Cc1c(COc2cc(OCc3ccnc(C#N)c3)c(CNCCO)cc2Cl)cccc1-c1ccc2c(c1)OCCO2` [Compound 4e, 4-((4-Chloro-5-((3-(2,3-dihydrobenzo[b][1,4]dioxin-6-yl)-2-methylbenzyl)oxy)-2-(((2-hydroxyethyl)amino)methyl)phenoxy)methyl)picolinonitrile] are 4.7 ± 0.2, 4.71 ± 0.24 and 7.7 ± 0.6 nM.
In data set [2], `Cc1c(COc2cc(OCc3ccnc(C#N)c3)c(CN3CCCC[C@H]3C(=O)O)cc2Cl)cccc1-c1ccc2c(c1)OCCO2` [Compound 4f, (S)-1-(5-Chloro-2-((2-cyanopyridin-4-yl)methoxy)-4-((3-(2,3-dihydrobenzo [b][1,4]dioxin-6-yl)-2-methylbenzyl)oxy)benzyl)piperidine-2-carboxylic Acid] gave a chromatographic logD of 3.64 ± 0.09. In addition, in data set [1] (setting [3]), the IC50 was found to be 4.9 ± 0.3 nM.
In the same order, the values of `Cc1c(COc2cc(OCc3ccnc(C#N)c3)c(CNCCOCCOCCOCCOCCC(=O)O)cc2Cl)cccc1-c1ccc2c(c1)OCCO2` [Compound 4g, 1-(5-Chloro-2-((2-cyanopyridin-4-yl)methoxy)-4-((3-(2,3-dihydrobenzo [b][1,4]dioxin-6-yl)-2-methylbenzyl)oxy)phenyl)-5,8,11,14-tetraoxa-2-azaheptadecan-17-oic Acid] are 3.42 ± 0.05 and 46 ± 5 nM.
With `C#CCC[C@H](NCc1cc(Cl)c(OCc2cccc(-c3ccc4c(c3)OCCO4)c2C)cc1OCc1ccnc(C#N)c1)C(=O)O` [Compound 4h, (S)-2-((5-Chloro-2-((2-cyanopyridin-4-yl)methoxy)-4-((3-(2,3-dihydrobenzo [b][1,4]dioxin-6-yl)-2-methylbenzyl)oxy)benzyl)amino)hex-5-ynoic Acid], the chromatographic logD in data set [2] is 3.42 ± 0.05. For the same compound, in data set [1] (setting [3]), the IC50 turned out to be 8.2 ± 1.8 nM.
Regarding `C#CCOC(=O)NCCCC[C@H](NCc1cc(Cl)c(OCc2cccc(-c3ccc4c(c3)OCCO4)c2C)cc1OCc1ccnc(C#N)c1)C(=O)O` [Compound 4i, N^2-(5-Chloro-2-((2-cyanopyridin-4-yl)methoxy)-4-((3-(2,3-dihydrobenzo[b][1,4]dioxin-6-yl)-2-methylbenzyl)oxy)benzyl)-N^6-((prop-2-yn-1-yloxy)carbonyl)-L-lysine], the chromatographic logD in data set [2] stood at 3.47 ± 0.06. Also, the concentration for half-maximal inhibition (IC50) in data set [1] (setting [3]) was 3.7 ± 0.5 nM.
As for `CC(=O)NCCNCc1cc(Cl)c(OCc2cccc(-c3ccc4c(c3)OCCO4)c2C)cc1OCc1cccc(C#N)c1` [Compound 4j, N-(2-((5-Chloro-2-((3-cyanobenzyl)oxy)-4-((3-(2,3-dihydrobenzo[b][1,4]dioxin-6-yl)-2-methylbenzyl)oxy)benzyl)amino)ethyl)acetamide], in data set [2], the “μHPLC logD” value stood at 4.7 ± 0.2 and the chromatographic logD is 4.73 ± 0.24. In addition, the IC50 in data set [1] (setting [3]) is 11 ± 1 nM.
The corresponding values for `CC(=O)NCCNCc1cc(Cl)c(OCc2cccc(-c3ccc4c(c3)OCCO4)c2C)cc1OCc1cocn1` [Compound 4k, N-(2-((5-Chloro-4-((3-(2,3-dihydrobenzo[b][1,4]dioxin-6-yl)-2-methylbenzyl)oxy)-2-(oxazol-4-ylmethoxy)benzyl)amino)ethyl)acetamide] are 4.2 ± 0.2, 4.21 ± 0.16 and 50 ± 7 nM.
In data set [2], `Cc1c(COc2cc(OCc3cocn3)c(CN3CCCC[C@H]3C(=O)O)cc2Cl)cccc1-c1ccc2c(c1)OCCO2` [Compound 4l, (S)-1-(5-Chloro-4-((3-(2,3-dihydrobenzo[b][1,4]dioxin-6-yl)-2-methylbenzyl)oxy)-2-(oxazol-4-ylmethoxy)benzyl)piperidine-2-carboxylic Acid] showed a chromatographic logD of 3.39 ± 0.04. For the same compound, the IC50 in data set [1] (setting [3]) stood at 16 ± 3 nM.
In the case of `Cc1c(COc2cc(OCc3ccnc(C#N)c3)c(CN[C@H](CO)C(=O)O)cc2Cl)cccc1-n1cccc1` [Compound 4m, (5-Chloro-2-((2-cyanopyridin-4-yl)methoxy)-4-((2-methyl-3-(1H-pyrrol-1-yl)benzyl)oxy)benzyl)-D-serine], the chromatographic logD in data set [2] was 2.83 ± 0.04. Further, in data set [1], the “fold reduction of affinity, pyrrole at R1 vs 1,4-benzodioxanyl analogue” value (from here on “fold reduction … vs 1,4-benzodioxanyl analogue”) stood at 1.03 fold. In addition, in data set [1] (setting [3]), the 50% inhibitory concentration (IC50) was found to be 6 ± 1 nM.
In the case of `Cc1c(COc2cc(OCc3ccnc(C#N)c3)c(CNCCO)cc2Cl)cccc1-n1cccc1` [Compound 4n, 4-((4-Chloro-2-(((2-hydroxyethyl)amino)methyl)-5-((2-methyl-3-(1H-pyrrol-1-yl)benzyl)oxy)phenoxy)methyl)picolinonitrile], in data set [2], the “μHPLC logD” value stood at 4.3 ± 0.2 and the chromatographic logD is 4.34 ± 0.18. Moreover, the “fold reduction … vs 1,4-benzodioxanyl analogue” value in data set [1] stood at 6.40 fold. In addition, in data set [1] (setting [3]), the IC50 was 50 ± 3 nM.
In data set [2], `Cc1c(COc2cc(OCc3ccnc(C#N)c3)c(CN3CCCC[C@H]3C(=O)O)cc2Cl)cccc1-n1cccc1` [Compound 4o, (S)-1-(5-Chloro-2-((2-cyanopyridin-4-yl)methoxy)-4-((2-methyl-3-(1H-pyrrol-1-yl)benzyl)oxy)benzyl)piperidine-2-carboxylic Acid] showed a chromatographic logD of 3.14 ± 0.01. Besides, the “fold reduction … vs 1,4-benzodioxanyl analogue” value in data set [1] is given as 5.99 fold. Also, in data set [1] (setting [3]), the IC50 is 29 ± 3 nM.
As for `COC(=O)[C@@H](CO)NCc1cc(Cl)c(OCc2cccc(-c3ccc4c(c3)OCCO4)c2C)cc1OCc1ccnc(C#N)c1` [Compound 5b, Methyl (5-Chloro-2-((2-cyanopyridin-4-yl)methoxy)-4-((3-(2,3-dihydrobenzo[b][1,4]dioxin-6-yl)-2-methylbenzyl)oxy)benzyl)-D-serinate], in data set [2], the “μHPLC logD” value was found to be 4.9 ± 0.3 and the chromatographic logD was 4.88 ± 0.26. Further, in data set [1], the “fold decrease in affinity by methylation at R3*” value was 4.98 fold. Moreover, in data set [1] (setting [3]), the concentration for half-maximal inhibition (IC50) is 30 ± 8 nM.
The corresponding values for `COCCNCc1cc(Cl)c(OCc2cccc(-c3ccc4c(c3)OCCO4)c2C)cc1OCc1ccnc(C#N)c1` [Compound 5d, 4-((4-Chloro-5-((3-(2,3-dihydrobenzo[b][1,4]dioxin-6-yl)-2-methylbenzyl)oxy)-2-(((2-methoxyethyl)amino)methyl)phenoxy)methyl)picolinonitrile] are 5.1 ± 0.3, 5.09 ± 0.29, 2.42 fold and 19 ± 4 nM.

For the origin of these results see PMC10945501, “Development and In Vivo Evaluation of Small-Molecule Ligands for Positron Emission Tomography of Immune Checkpoint Modulation Targeting Programmed Cell Death 1 Ligand 1” (Journal of Medicinal Chemistry, 2024).
